Non-standard residues stand in square brackets, D forms with d. No end group written: not given here. pY = N[C@@H](Cc1ccc(OP(=O)(O)O)cc1)C(=O)O
Experiments:
[1] = test system: HCT116 xenograft tumors; experiment: HCT116 xenograft in NSG mice, systemic (i.v.) treatment; type: in vivo, mouse
Experimental: (A) Growth kinetics of HCT116 tumors in NSG mice systemically treated with acet.-STAT3 peptides (1 mg/kg), with or without PS oligonucleotide conjugation, every other day (n = 5). SD is shown. Two-way ANOVA (Tukey’s multiple comparisons test) was used for analyzing the kinetics of tumor growth over the treatment period; ****P < 0.001. […] Lower 2 panels show input total STAT3 protein. […] Penetration of FAM-labeled PS-acet.-STAT3 peptide into tumors was also assessed by immunostaining followed by confocal imaging (second panel from top). The images are representative of 5 tumors per experimental group in A. Scale bars: 50 μm. Insets: original magnification, ×20. The graphs show the quantification for FAM and Ki-67 expression levels and of the mean vessel diameter (data include 5 fields of view per group). SD is shown. One-way ANOVA; ****P < 0.001; ***P < 0.005.
Mouse care and experimental procedures were performed under pathogen-free conditions in accordance with established institutional guidance and approved IACUC protocols from Research Animal Care Committee of the City of Hope. For s.c. tumor challenge, 5 × 10^6 HCT116 cells were injected into NSG mice from The Jackson Laboratory or animal resource core facility at the City of Hope. After tumors reached an average size of 80~100 mm^3, mice were locally or intravenously treated with 1 mg/kg of PO- or PS-peptides (Anaspec) every day or every other day. Control animals were treated with the equal volume of HBSS (Invitrogen, Thermo Fisher Scientific). Tumor growth was measured by a digital caliper every other day. To study the effects of the modified peptides at protein and gene levels, mice were euthanized 4–6 weeks after tumor injection. B16 melanoma lung metastasis was performed by injecting 0.5 × 10^6 B16 cells into bloodstream of C57BL/6 mice (The Jackson Laboratory). One day after tumor challenge, mice were treated intravenously (retro-orbitally) with 1 mg/kg of PO- or PS-acet.-STAT3, PS-unacet.-STAT3, or PS-STAT3-K685R peptides every other day until the endpoint as indicated. Control mice were treated with HBSS. Lungs were excised from the mice, and B16 nodules were visualized by gp100 staining. Lungs were then analyzed for immune responses by immunostaining followed by confocal imaging. For mouse PDAC model, 5 × 10^6 KPC mouse cells were mixed with Matrigel and subcutaneously injected into C57BL/6 mice (The Jackson Laboratory). […] Control animals were treated with the equal volume of HBSS (Invitrogen, Thermo Fisher Scientific). Tumor growth was measured by a digital caliper every other day. To study the effects of the modified peptides at protein and gene levels, mice were euthanized at the endpoint as indicated.

[2] = test system: IL-6–induced STAT3 phosphorylation; experiment: IL-6–induced STAT3 phosphorylation, Western blotting; type: cell-based; conditions: preincubated 2 hours, 20 ng/mL IL-6 for 30 minutes
Experimental: (§1) Figure 8 PS-Gp130 and PS-MYC blocking peptides efficiently internalize into tumor cells to exert their functions. (A) For 1 hour 1 μM of PS-conjugated MYC (PS-MYC) and Gp130 (PS-Gp130) were incubated with cancer cells. PS-scramble MYC (PS-SC-MYC) was used as a control for PS-MYC. The peptide uptake was visualized by confocal microscopy and quantified by flow cytometry. Data are representative of 3 independent experiments (n = 3). (B) Upper panel: The binding of PS-Gp130 and STAT3 was examined by immunoprecipitation and Western blotting. PO-Gp130 was used as a control. For 4 hours prior to harvest, 1 μM of peptide was incubated with cells. Lower panel: PS-Gp130 inhibits IL-6–induced phosphorylation of STAT3 and p44/42 but not EGF-mediated signaling. The cells were preincubated with PS-Gp130 for 2 hours and then stimulated with 20 ng/mL of IL-6 or 30 ng/mL of EGF for 30 minutes before harvest and Western blotting. (C) Gene expression of STAT3 targets was examined by quantitative PCR after the treatment with 1 μM of PS-Gp130 with or without IL-6 stimulation as described above. Data shown are 3 independent experiments (n = 3); SD is shown. Unpaired Student’s t test; ***P < 0.005; **P < 0.01; *P < 0.05. (D) A total of 1 μM of PS-SC-MYC or PS-MYC was incubated with cells for 48 hours before the gene expression of MYC targets was examined by quantitative PCR. […]

[3] = test system: EGF-mediated ERK phosphorylation; experiment: EGF-mediated ERK phosphorylation, Western blotting; type: cell-based; conditions: preincubated 2 hours, 30 ng/mL EGF for 30 minutes
Experimental: as §1

Row | Substance | tumor growth ([1]; HCT116 s.c. in NSG mice, 1 mg/kg i.v. every other day, n = 5) | STAT3 activation in tumor xenografts ([1]; HCT116 tumor tissues, immunoprecipitation and Western blotting) | cell death in tumor sections (H&E staining) ([1]; HCT116 xenograft) | cell proliferation marker Ki-67 and tumor angiogenesis marker CD31 in tumor tissues ([1]; HCT116 xenograft, IF and confocal) | proapoptotic genes (TP53, CASP9) in tumor tissues ([1]; HCT116 xenograft, qRT-PCR) | expression of STAT3 target genes MMP-9 (MMP9) and BCL-XL (BCL2L1) in tumors ([1]; HCT116 xenograft, qRT-PCR and Western blotting) | IL-6–induced STAT3 phosphorylation [2] | EGF-mediated ERK phosphorylation [3]
1 | PDIPKEEAFGK685(Ac)YCRPESQEHPC-linker-T*C*C*A*T*G*A*G*C*T*T*C*C*T*G*A*T*G*C*T [PS-acet.-STAT3 peptide] | significantly reduced | downregulated | massive cell death | significant reduction | significantly upregulated | significantly reduced | – | –
2 | PS-Gp130: PS-conjugated Gp130 peptide (amino acids 901–910) with phospho-Tyr905 (MPKS[pY]LPQTV; also: phosphorothioate oligonucleotide conjugate; UniProt P40189 901-910, looked up, fragment) | – | – | – | – | – | – | selectively inhibited | not
